Measured values reported in patent US20220323325A1, “COMPOSITIONS COMPRISING DISSUBSTITUTE TEREPHTHALATES AND ALSO LIGHT PROECTION FILTER SUBSTANCES, DEODORANT AND/OR ANTIPERSPIRANT ACTIVE INGREDIENTS” (Evonik Operations GmbH, priority 2019, published 2022).

Experiment: Dissolution capacity of UV light protection filters
Assay type: physicochemical
Conditions: 22° C., percentage by weight; for dissolution capacity for BEMT (maximal soluble amount): Bis-Ethylhexyloxyphenol Methoxyphenyl Triazine in the compound as solvent; for dissolution capacity for BMDM (maximal soluble amount): Butyl Methoxydibenzoylmethane in the compound as solvent; for dissolution capacity for EHT (maximal soluble amount): Ethylhexyl Triazone in the compound as solvent
From the text: To test the dissolution capacity of UV light protection filters, three representative UVA or UVB light protection filters were selected representatively. These are: • Butyl Methoxydibenzoylmethane (BMDM) • Ethylhexyl Triazone (EHT) • Bis-Ethylhexyloxyphenol Methoxyphenyl Triazine (BEMT).
To determine the dissolution capacity for these three UV light protection filters, a certain amount (50 g) of one of the compounds according to the invention was initially charged in each case and temperature-controlled at 22° C. A percentage by weight of a UV light protection filter was added and stirred until this amount had fully and homogeneously dissolved. This procedure was repeated until the maximal soluble amount of the UV light protection filter had been exceeded. […] If the maximum concentration had been roughly determined in this manner, a fine determination of the concentration range was repeated around this maximum concentration using smaller weighed amounts of the UV light protection filter.

| SMILES | dissolution capacity for BEMT (maximal soluble amount) [%] | dissolution capacity for BMDM (maximal soluble amount) [%] | dissolution capacity for EHT (maximal soluble amount) [%] |
| --- | --- | --- | --- |
| CC(C)CCOC(=O)c1ccc(C(=O)OCCC(C)C)cc1 [Di(iso)pentyl terephthalate] | 13 | 22 | 14 |
| CCCCCCCC(=O)OCCOc1ccccc1 [2-Phenoxyethyl octanoate, reference compound] | 11 | 18 | 6 |
| CCCCOC(=O)c1ccc(C(=O)OCCCC)cc1 [Di(n-)butane terephthalate] | 23 | 23 | 18 |
